Patent publication US7410975B2, “Small molecule toll-like receptor (TLR) antagonists” (Coley Pharmaceutical Group, Inc., priority 2003, dated 2008)
“Also recorded” adds a separate entry of the source. Where two headings read alike, the source gives them in different places.

Tests used:
[1] = In vivo toxicity in mice: body weight, mortality, white blood cell differential (Example 9); set-up: species or system BALB/c mice
Source text: FIG. 2 is a pair of graphs depicting results of an in vivo toxicity assay in mice for specific quinoline and quinazoline compounds. […] N=3 for each treatment group.
FIG. 3 is a bar graph depicting total and differential white blood cell counts in mice measured five days after administration of a single intraperitoneal dose of specific quinoline and quinazoline compounds. N=3 for each treatment group.
Female BALB/c mice (n=3 per group) were given a single intraperitoneal bolus injection of CMZ 203-43 (1.0 or 4.0 mg), CMZ 203-34 (1.0 or 4.0 mg) or CMZ 203-49 (1.0 or 4.0 mg) in a volume of 0.2 ml. Compound CMZ 203-43 has the structural formula
Other mice received 10% dimethyl sulfoxide (DMSO) in an identical manner. Animals were weighed immediately prior to injection (day 1) and then daily until day 5. On day 5, blood was collected by cardiac puncture and analyzed for hematological and biochemical parameters. Animals were monitored daily for morbidity and mortality.
All of the mice receiving 4.0 mg CMZ 203-43 group were dead on day 4.
Data for mice treated with 4.0 mg CMZ 203-43 was not available because all these mice were dead before day 5.

[2] = tested on: IP-10 induction by CpG ODN 2006; assay: In vivo inhibition of IP-10 induction by CpG ODN 2006 (Example 10); set-up: species or system BALB/c mice; conditions: 40 μg intraperitoneal 1 h before 100 μg CpG ODN 2006 s.c.; bled at 3 hr
Procedure: FIG. 4 is a bar graph depicting in vivo inhibition of IP-10 induction (pg/ml) by CpG ODN 2006 following pretreatment with PBS control or a quinoline compound (203-43) or various indicated quinazoline compounds (203-34, 203-49, or 203-51). N=5 for each group.
(§1) BALB/c mice (n=5) were pretreated with intraperitoneal injection of 40 μg quinoline 203-43, quinazoline 203-34, 203-49, or 203-51, or with 100 μl of sterile phosphate buffered saline (PBS) control. One hour after the injection, mice were injected subcutaneously with 100 μg CpG ODN 2006. Animals were bled at 3 hr post injection with CpG ODN 2006 and IP-10 levels in plasma measured by IP-10-specific enzyme-linked immunosorbent assay (ELISA).

[3] = tested on: TNF-α induction by CpG ODN 2006; assay: In vivo inhibition of TNF-α induction by CpG ODN 2006 (Example 11); set-up: species or system BALB/c mice; conditions: 40 μg intraperitoneal 1 h before 100 μg CpG ODN 2006 s.c.; bled at 1 hr
Procedure: FIG. 5 is a bar graph depicting in vivo inhibition of TNF-α induction (pg/ml) by CpG ODN 2006 following pretreatment with PBS control or a quinoline compound (203-43) or various indicated quinazoline compounds (203-34, 203-49, or 203-51). N=5 for each group.
as §1
Groups of BALB/c mice treated as in Example 10 were also analyzed for TNF-α. Animals were bled at 1 hr post injection with CpG ODN 2006 and TNF-α levels in plasma measured by TNF-α-specific ELISA.

[4] = read-out: IC50 by Macfarlane's assay; cited from earlier work
[5] = Macfarlane's assay of chloroquines (IC50); conditions: from the Macfarlane IC50 values
Source text: It turns out that chloroquine, hydroxychloroquine, mono de-ethylchloroquine, and bis de-ethylchloroquine have been examined by Macfarlane.

Plasmodium falciparum = conditions: treatment of malaria; Aderounmu 1984; cited from earlier work
[6] = cited from earlier work
hTLR9 = target: T1, hTLR9 (Homo sapiens, UniProt Q9NR96); assay: hTLR9 antagonism IC50, hTLR9-NFkB-293 cells, luciferase readout, CpG-ODN 2006 (Examples 8 and 18, Tables 19 and 20); assay type: cell-based; conditions: hTLR9-NFkB-293 cells, EC50 dose of CpG-ODN 2006, 16 h; Table 19 quinazolines; read-out: hTLR9 (IC50 dose for blockade of a CpG ODN-generated signal)
T1 construct: expressed in transfected cells
T1 sequence (Q9NR96 26-1032): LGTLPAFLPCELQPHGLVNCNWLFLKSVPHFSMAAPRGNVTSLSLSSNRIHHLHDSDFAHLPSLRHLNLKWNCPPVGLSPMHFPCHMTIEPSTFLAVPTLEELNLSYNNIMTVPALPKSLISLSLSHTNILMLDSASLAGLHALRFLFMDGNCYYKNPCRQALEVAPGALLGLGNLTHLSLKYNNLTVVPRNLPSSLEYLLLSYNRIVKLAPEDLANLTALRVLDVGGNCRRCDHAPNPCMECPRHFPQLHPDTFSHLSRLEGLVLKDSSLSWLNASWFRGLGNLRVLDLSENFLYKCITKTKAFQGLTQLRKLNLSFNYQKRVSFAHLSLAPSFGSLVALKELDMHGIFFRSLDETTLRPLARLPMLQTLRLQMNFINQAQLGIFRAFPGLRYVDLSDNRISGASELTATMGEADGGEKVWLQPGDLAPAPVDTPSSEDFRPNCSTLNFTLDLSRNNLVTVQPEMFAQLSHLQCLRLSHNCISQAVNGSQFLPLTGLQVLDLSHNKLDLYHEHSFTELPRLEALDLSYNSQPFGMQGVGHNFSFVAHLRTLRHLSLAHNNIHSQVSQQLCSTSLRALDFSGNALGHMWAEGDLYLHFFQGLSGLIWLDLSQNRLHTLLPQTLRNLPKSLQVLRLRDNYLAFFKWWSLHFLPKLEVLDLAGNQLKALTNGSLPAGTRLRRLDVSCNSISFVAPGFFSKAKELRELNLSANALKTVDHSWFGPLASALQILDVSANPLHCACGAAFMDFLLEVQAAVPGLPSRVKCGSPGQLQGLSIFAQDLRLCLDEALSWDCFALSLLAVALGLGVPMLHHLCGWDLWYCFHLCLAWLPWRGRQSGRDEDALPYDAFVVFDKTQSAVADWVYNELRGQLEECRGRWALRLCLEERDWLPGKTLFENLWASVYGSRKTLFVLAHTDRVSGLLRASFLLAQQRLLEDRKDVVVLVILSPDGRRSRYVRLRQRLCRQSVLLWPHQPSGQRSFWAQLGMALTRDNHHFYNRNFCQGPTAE
Procedure: (§2) hTLR9-NFkB-293 cells were counted and seeded at 1.5×10^4 cells per well in 96-well cell culture plates one day before assaying and cultured at 37° C./5% CO2, as described in Example 7. The day of the assay, antagonist was added at varying concentrations starting at 50 μM with a 1/5 to 1/6 dilution for 7 steps. The cells were then stimulated with the EC50 dose of the TLR9 agonist, CpG-ODN 2006, and cultured for 16 h in a humidified incubator at 37° C. The culture supernatant was removed and the cells were treated with lysis buffer and stored at −80° C. before measuring luciferase activity as described in Example 7. […] Results shown in Table 19 under the heading hTLR9 are the IC50 dose (μM) for blockade of a CpG ODN-generated signal in hTLR9-NFkB-293 cells.
as §2, with “20” for “19”

[7] = tested on: CpG ODN-generated IL-6 production by human PBMC; assay: Blockade of CpG ODN-generated IL-6 production by human PBMC, ELISA (Example 8, Table 19); assay type: cell-based; conditions: CpG-ODN 2006, 16 h
Source text: Alternatively, TLR9 ligand antagonism in human peripheral blood mononuclear cells (PBMC) was monitored. Peripheral blood buffy coat preparations from healthy male and female human donors were obtained from the Blood Bank of the University of Düsseldorf (Germany) and from these, PBMC were purified by centrifugation over Ficoll-Hypaque (Sigma). The purified PBMC were resuspended in RPMI 1640 culture medium supplemented with 5% (v/v) heat-inactivated human AB serum (Bio Whittaker, Belgium) or 10% (v/v) heat-inactivated fetal calf serum (FCS), 1.5 mM L-glutamine, 100 U/ml penicillin and 100 μg/ml streptomycin (all from Sigma). Fresh PBMC at a concentration of 3×10^6/ml to 5×10^6/ml were added to 96-well round-bottomed plates (150 μl/well). After cell plating, antagonist was added at varying concentrations starting at 50 μM with a 1/5 to 1/6 dilution for 7 steps. The cells were then stimulated with the TLR9 agonist, CpG-ODN 2006, and cultured for 16 h in a humidified incubator at 37° C. Culture supernatants were collected and, if not used immediately, frozen at −20° C. until required. Interleukin 6 (IL-6) in the supernatants was quantitatively assessed using commercially available ELISA Kits (IL6, Diaclone, USA). Sigmoidal antagonism curves were generated and IC50 calculated. Results shown in Table 19 under the heading IL-6 are the IC50 dose (μM) for blockade of CpG ODN-generated IL-6 production by human PBMC.

WEHI 231 B-cells = conditions: anti-surface IgM, U.S. Pat. No. 6,479,504, read-out: EC50, half-maximal inhibition of CpG-ODN effect on thymidine uptake; cited from earlier work
[8] = 4.0 mg single intraperitoneal injection

For `CN(C)CCNc1cc(-c2ccc(N3CCN(C)CC3)cc2)nc2ccccc12` [CMZ 203-43], which body weight change ([1]; 1.0 mg single intraperitoneal injection, 5 days) is on record?
Its body weight change is “significant weight loss”.

And the “white blood cell differential” value ([1]; 1.0 mg single intraperitoneal injection, day 5)?
The value was “significant neutrophilia”.

What about the morbidity and mortality [1, 8] of the same molecule?
Its morbidity and mortality is “sick and had to be sacrificed on day 3; also recorded: dead on day 4”.

What about the necropsy finding [1, 8] of the same molecule?
Its necropsy finding is “bowel obstruction”.

What about the “serum IP-10 concentration versus PBS control” value [2] of the same molecule?
Its value is “significantly reduced”.

What about the “serum TNF-α concentration versus PBS control” value [3] of the same molecule?
Its value is “significantly reduced”.

Which IC50 [4] does the source give for `CCN(CCO)CCCC(C)Nc1ccnc2cc(Cl)ccc12` (stereo not shown) [hydroxychloroquine] here?
The IC50 was 0.41 µM.

What does the source list for `CCNCCCC(C)Nc1ccnc2cc(Cl)ccc12` (stereo not shown) [mono de-ethylchloroquine]?
reduction of potency relative to chloroquine [5]: about 7 fold; IC50 [4]: 0.708 µM; potency against Plasmodium falciparum (Plasmodium falciparum): about equal; half life relative to that of chloroquine ([6]; humans): 1.5 times; half life in humans ([6]; humans, de Vries 1994): 27 days

With `CN(C)CCOc1nc(-c2ccc(N3CCN(C)CC3)cc2)nc2ccccc12` [CMZ 203-49(213), Dimethyl-(2-{2-[4-(4-methyl-piperazin-1-yl)-phenyl]-quinazolin-4-yloxy}-ethyl)-amine] as the molecule, how does the IC50 (hTLR9) read?
Its IC50 is 2.4 µM.

And the IC50 [7]?
Its IC50 is 0.6 µM.

For `CN(C)CCNc1nc(-c2ccccc2)nc2ccccc12` [CMZ 203-44, N,N-Dimethyl-N′-(2-phenyl-quinazolin-4-yl)-ethane-1,2-diamine], which IC50 (hTLR9) is on record?
Its IC50 is 2.4 µM.

And the IC50 [7]?
The IC50 was 4 µM.

Which “reduction of potency relative to chloroquine” value [5] does the source give for `CC(CCCN)Nc1ccnc2cc(Cl)ccc12` (stereo not shown) [bis de-ethylchloroquine] here?
The value was “about 18 fold”.

What about the IC50 [4] of the same molecule?
Its IC50 is 1.86 µM.

What about the “potency against Plasmodium falciparum” value (Plasmodium falciparum) of the same molecule?
Its value is “about half as active”.

Which IC50 (hTLR9) does the source give for `COc1cc2nc(N3CCN(c4ccccc4)CC3)nc(NCCN(C)C)c2cc1OC` [CMZ 203-78, N′-[6,7-Dimethoxy-2-(4-phenyl-piperazin-1-yl)-quinazolin-4-yl]-N,N-dimethyl-ethane-1,2-diamine] here?
Its IC50 is 0.003 µM.

What about the IC50 [7] of the same molecule?
The IC50 was 0.008 µM.

Which IC50 (hTLR9) does the source give for `CN(C)CCNc1nc(-c2ccc(-c3ccccc3)cc2)nc2ccccc12` [CMZ 203-51, N′-(2-Biphenyl-4-yl-quinazolin-4-yl)-N,N-dimethyl-ethane-1,2-diamine] here?
Its IC50 is 5.2 µM.

And the IC50 [7]?
The IC50 was 6.6 µM.

For `COc1cc2nc(N3CCN(C)CC3)nc(NCCN(C)C)c2cc1OC` [CMZ 203-76, N′-[6,7-Dimethoxy-2-(4-methyl-piperazin-1-yl)-quinazolin-4-yl]-N,N-dimethyl-ethane-1,2-diamine], which IC50 (hTLR9) is on record?
Its IC50 is 0.003 µM.

What about the IC50 [7] of the same molecule?
Its IC50 is 0.221 µM.

Which results are given for `CN(C)CCNC1NC(c2ccc(N3CCN(C)CC3)cc2)=Nc2ccccc21` (stereo not shown) [CMZ 203-34(201), N,N-dimethyl-N′-{2-[4-(4-methyl-piperazin-1-yl)-phenyl]-3,4-dihydro-quinazoline-4-yl}-ethane-1,2,-diamine]?
IC50 (hTLR9): 0.003 µM; IC50 [7]: 0.05 µM

Which IC50 [4] does the source give for `CCN(CC)CCCC(C)Nc1ccnc2cc(Cl)ccc12` (stereo not shown) [chloroquine] here?
Its IC50 is 0.11 µM.

And the “potency against Plasmodium falciparum” value (Plasmodium falciparum)?
The value was “about equal”.

What about the “half life in humans” value ([6]; human, in vivo) of the same molecule?
The value was 18 days.

With `CCN(CC)CCCC(C)Nc1c2ccc(Cl)cc2nc2ccc(OC)cc12` (stereo not shown) [quinacrine] as the molecule, how does the EC50 (WEHI 231 B-cells) read?
The EC50 was ~0.008 µM.
